Data: PMC5218480 (PLoS ONE, 2017)

System: MV-4-11 cells
Assay: Gene expression microarray analysis (Affymetrix PrimeView) and GSEA
Format: cell-based, human
Set-up: RFU PODN (11730768_x_at) / Fold change /veh PODN (11730768_x_at) / RFU LINC00158 (11744669_a_at) / Fold change /veh LINC00158 (11744669_a_at) / RFU DUSP10 (11751237_a_at) / Fold change /veh DUSP10 (11751237_a_at) / RFU ID3 (11757404_x_at) / Fold change /veh ID3 (11757404_x_at) / RFU PLEKHG5 (11737974_s_at) / Fold change /veh PLEKHG5 (11737974_s_at) / RFU LRRC4B (11730491_at) / Fold change /veh LRRC4B (11730491_at) / RFU GIMAP4 (11747438_a_at) / Fold change /veh GIMAP4 (11747438_a_at) / RFU KRT8 (11758183_x_at) / Fold change /veh KRT8 (11758183_x_at) / RFU CNN1 (11734310_a_at) / Fold change /veh CNN1 (11734310_a_at) / RFU VPS37D (11726825_at) / Fold change /veh VPS37D (11726825_at) / RFU C10orf10 (11716522_x_at) / Fold change /veh C10orf10 (11716522_x_at) / RFU KIR2DL2 /// KIR2DL4 /// KIR2DL5A /// KIR2DL5B /// KIR2DS1 /// KIR2DS2 /// KIR2DS3 /// KIR2DS4 /// KIR3DL3 /// KIR3DL3 /// KIR3DS1 (11738374_at) / Fold change /veh KIR2DL2 /// KIR2DL4 /// KIR2DL5A /// KIR2DL5B /// KIR2DS1 /// KIR2DS2 /// KIR2DS3 /// KIR2DS4 /// KIR3DL3 /// KIR3DL3 /// KIR3DS1 (11738374_at) / RFU C1QL1 (11718748_at) / Fold change /veh C1QL1 (11718748_at) / RFU TMPRSS4 (11747572_a_at) / Fold change /veh TMPRSS4 (11747572_a_at) / RFU HAMP (11756126_x_at) / Fold change /veh HAMP (11756126_x_at) / RFU RNFT2 (11725882_a_at) / Fold change /veh RNFT2 (11725882_a_at) / RFU NR4A2 (11747474_a_at) / Fold change /veh NR4A2 (11747474_a_at) / RFU ABCC12 (11746883_a_at) / Fold change /veh ABCC12 (11746883_a_at) / RFU TMEM136 (11760407_x_at) / Fold change /veh TMEM136 (11760407_x_at) / RFU CLDN22 /// WWC2 (11732394_at) / Fold change /veh CLDN22 /// WWC2 (11732394_at) / RFU HLA-DPB1 (11760878_x_at) / Fold change /veh HLA-DPB1 (11760878_x_at) / RFU SPINT1 (11716480_a_at) / Fold change /veh SPINT1 (11716480_a_at) / RFU GAP43 (11754022_s_at) / Fold change /veh GAP43 (11754022_s_at) / RFU A4GNT (11735810_at) / Fold change /veh A4GNT (11735810_at) / RFU PRB3 (11715151_x_at) / Fold change /veh PRB3 (11715151_x_at) / RFU TUBB4B (11761932_at) / Fold change /veh TUBB4B (11761932_at) / RFU CAPN14 (11732068_a_at) / Fold change /veh CAPN14 (11732068_a_at) / RFU TMCC2 (11721928_a_at) / Fold change /veh TMCC2 (11721928_a_at) / RFU IRGQ (11745062_a_at) / Fold change /veh IRGQ (11745062_a_at) / RFU FAM174B (11720279_a_at) / Fold change /veh FAM174B (11720279_a_at) / RFU TMPRSS4 (11748680_a_at) / Fold change /veh TMPRSS4 (11748680_a_at) / RFU FAM212B (11763350_a_at) / Fold change /veh FAM212B (11763350_a_at) / RFU PLEKHG5 (11743358_a_at) / Fold change /veh PLEKHG5 (11743358_a_at) / RFU ZSCAN30 (11745921_a_at) / Fold change /veh ZSCAN30 (11745921_a_at) / RFU CMKLR1 (11741424_a_at) / Fold change /veh CMKLR1 (11741424_a_at) / RFU LOC101060620 /// MAPK8IP1 (11723275_at) / Fold change /veh LOC101060620 /// MAPK8IP1 (11723275_at) / RFU SPTSSB (11747773_x_at) / Fold change /veh SPTSSB (11747773_x_at) / RFU PRSS12 (11739890_at) / Fold change /veh PRSS12 (11739890_at) / RFU BIN1 (11741810_x_at) / Fold change /veh BIN1 (11741810_x_at) / RFU WNT11 (11732464_a_at) / Fold change /veh WNT11 (11732464_a_at) / RFU C10orf10 (11716521_a_at) / Fold change /veh C10orf10 (11716521_a_at) / RFU C5orf56 (11738089_at) / Fold change /veh C5orf56 (11738089_at) / RFU CYB561 (11721691_x_at) / Fold change /veh CYB561 (11721691_x_at) / RFU ANKRD19P (11752326_a_at) / Fold change /veh ANKRD19P (11752326_a_at) / RFU OR2T12 /// OR2T33 /// OR2T8 (11738714_s_at) / Fold change /veh OR2T12 /// OR2T33 /// OR2T8 (11738714_s_at) / RFU VCAN (11748164_a_at) / Fold change /veh VCAN (11748164_a_at) / RFU JSRP1 (11732532_at) / Fold change /veh JSRP1 (11732532_at) / RFU KRTAP10-11 (11738290_x_at) / Fold change /veh KRTAP10-11 (11738290_x_at) / RFU MYO3A (11730013_a_at) / Fold change /veh MYO3A (11730013_a_at) / RFU EBF3 (11725865_a_at) / Fold change /veh EBF3 (11725865_a_at) / RFU CAMK2N1 (11719241_x_at) / Fold change /veh CAMK2N1 (11719241_x_at) / RFU C5orf56 (11738088_a_at) / Fold change /veh C5orf56 (11738088_a_at) / RFU OLFML3 (11715873_a_at) / Fold change /veh OLFML3 (11715873_a_at) / RFU LOC100653217 /// NTM (11731650_a_at) / Fold change /veh LOC100653217 /// NTM (11731650_a_at) / RFU MAPK11 (11762145_a_at) / Fold change /veh MAPK11 (11762145_a_at) / RFU FIZ1 (11724087_x_at) / Fold change /veh FIZ1 (11724087_x_at) / RFU OASL (11726364_x_at) / Fold change /veh OASL (11726364_x_at) / RFU SOX15 (11748057_x_at) / Fold change /veh SOX15 (11748057_x_at) / RFU CD79A (11719716_a_at) / Fold change /veh CD79A (11719716_a_at) / RFU HIST1H1D (11736915_at) / Fold change /veh HIST1H1D (11736915_at) / RFU CASKIN2 (11723855_a_at) / Fold change /veh CASKIN2 (11723855_a_at) / RFU LOC730098 (11760151_x_at) / Fold change /veh LOC730098 (11760151_x_at) / RFU OR4N2 (11742367_at) / Fold change /veh OR4N2 (11742367_at) / RFU PRRT2 (11749266_a_at) / Fold change /veh PRRT2 (11749266_a_at) / RFU SNX32 (11753110_a_at) / Fold change /veh SNX32 (11753110_a_at) / RFU CDHR5 (11726645_a_at) / Fold change /veh CDHR5 (11726645_a_at) / RFU RCAN1 (11760418_a_at) / Fold change /veh RCAN1 (11760418_a_at) / RFU FAM167A (11723789_a_at) / Fold change /veh FAM167A (11723789_a_at) / RFU FAM26E (11764081_at) / Fold change /veh FAM26E (11764081_at) / RFU ISYNA1 (11749810_s_at) / Fold change /veh ISYNA1 (11749810_s_at) / RFU ACY1 (11761880_at) / Fold change /veh ACY1 (11761880_at) / RFU 11764098_at / Fold change /veh 11764098_at / RFU SAMD14 (11745864_x_at) / Fold change /veh SAMD14 (11745864_x_at) / RFU NPB (11741838_a_at) / Fold change /veh NPB (11741838_a_at) / RFU TMPRSS6 (11731388_a_at) / Fold change /veh TMPRSS6 (11731388_a_at) / RFU KRTAP10-2 (11738614_at) / Fold change /veh KRTAP10-2 (11738614_at) / RFU ARHGAP8 /// PRR5-ARHGAP8 (11727945_x_at) / Fold change /veh ARHGAP8 /// PRR5-ARHGAP8 (11727945_x_at) / RFU KRTAP5-7 /// NADSYN1 (11734609_at) / Fold change /veh KRTAP5-7 /// NADSYN1 (11734609_at) / RFU RASL12 (11751679_a_at) / Fold change /veh RASL12 (11751679_a_at) / RFU CDKN2B (11736163_a_at) / Fold change /veh CDKN2B (11736163_a_at) / RFU PRF1 (11729649_at) / Fold change /veh PRF1 (11729649_at) / RFU, ZNF638 /// ZNF638-IT1 / Fold change vs veh, ZNF638 /// ZNF638-IT1 / RFU, PANK3 / Fold change vs veh, PANK3 / RFU, SH3YL1 / Fold change vs veh, SH3YL1 / RFU, ZEB2 / Fold change vs veh, ZEB2 / RFU, NRIP1 / Fold change vs veh, NRIP1 / RFU, PTTG1IP / Fold change vs veh, PTTG1IP / RFU, CAPN2 / Fold change vs veh, CAPN2 / RFU, MED14 / Fold change vs veh, MED14 / RFU, SNORA58 / Fold change vs veh, SNORA58 / RFU, C1orf63 / Fold change vs veh, C1orf63 / RFU, LRRFIP1 / Fold change vs veh, LRRFIP1 / RFU, NDUFAF7 / Fold change vs veh, NDUFAF7 / RFU, SLC12A2 / Fold change vs veh, SLC12A2 / RFU, IBTK / Fold change vs veh, IBTK / RFU, ESF1 / Fold change vs veh, ESF1 / Fold change vs veh, TMEM50B / RFU, TAOK1 / Fold change vs veh, TAOK1 / RFU, ACBD3 / Fold change vs veh, ACBD3 / RFU, TMA16 / Fold change vs veh, TMA16 / RFU, RWDD3 / Fold change vs veh, RWDD3 / RFU, BCAT1 / Fold change vs veh, BCAT1 / RFU, EDEM3 / Fold change vs veh, EDEM3 / RFU, TMEM33 / Fold change vs veh, TMEM33 / RFU, WDR75 / Fold change vs veh, WDR75 / RFU, AHCTF1 / Fold change vs veh, AHCTF1 / RFU, TFRC / Fold change vs veh, TFRC / RFU, ZDHHC17 / Fold change vs veh, ZDHHC17 / RFU, NOM1 / Fold change vs veh, NOM1 / RFU, ARL8B / Fold change vs veh, ARL8B / RFU, ZBTB11 / Fold change vs veh, ZBTB11 / RFU, TAMM41 / Fold change vs veh, TAMM41 / RFU, KIAA1704 /// LOC100996395 / Fold change vs veh, KIAA1704 /// LOC100996395 / RFU, ING1 / Fold change vs veh, ING1 / RFU, TRMT61B / Fold change vs veh, TRMT61B / RFU, FUBP3 / Fold change vs veh, FUBP3 / RFU, TP53 / Fold change vs veh, TP53 / RFU, TNKS2 / Fold change vs veh, TNKS2 / RFU, ZFP14 / Fold change vs veh, ZFP14 / RFU, ACTR2 / Fold change vs veh, ACTR2 / RFU, PPP3R1 / Fold change vs veh, PPP3R1 / RFU, PIK3R1 / Fold change vs veh, PIK3R1 / RFU, HNRNPA1 / Fold change vs veh, HNRNPA1 / RFU, RNF170 / Fold change vs veh, RNF170 / RFU, ZNF28 / Fold change vs veh, ZNF28 / RFU, RNGTT / Fold change vs veh, RNGTT / RFU, OGT / Fold change vs veh, OGT / RFU, BRD1 / Fold change vs veh, BRD1 / RFU, MARS / Fold change vs veh, MARS / RFU, ZNF655 / Fold change vs veh, ZNF655 / RFU, FAHD1 / Fold change vs veh, FAHD1 / RFU, BDP1 / Fold change vs veh, BDP1 / RFU, LRRCC1 / Fold change vs veh, LRRCC1 / RFU, ARID1A / Fold change vs veh, ARID1A / RFU, ZNF146 / Fold change vs veh, ZNF146 / RFU, ZNF330 / Fold change vs veh, ZNF330 / RFU, GPN3 / Fold change vs veh, GPN3 / RFU, C9orf123 / Fold change vs veh, C9orf123 / RFU, N4BP2L2 / Fold change vs veh, N4BP2L2 / RFU, ARFIP1 / Fold change vs veh, ARFIP1 / RFU, FAM179B / Fold change vs veh, FAM179B / RFU, BCL10 / Fold change vs veh, BCL10 / RFU, UHRF1BP1L / Fold change vs veh, UHRF1BP1L / RFU, BET1 / Fold change vs veh, BET1 / RFU, CNOT2 / Fold change vs veh, CNOT2 / RFU, ZNF268 / Fold change vs veh, ZNF268 / Fold change vs veh, ZNF507 / RFU, DGCR2 / Fold change vs veh, DGCR2 / RFU, WDSUB1 / Fold change vs veh, WDSUB1 / Fold change vs veh, HSP90B1 /// MIR3652 / RFU, ADSS / Fold change vs veh, ADSS / RFU, GK / Fold change vs veh, GK / RFU, ZNF148 / Fold change vs veh, ZNF148 / RFU, TAF9 / Fold change vs veh, TAF9 / RFU, SLC1A5 / Fold change vs veh, SLC1A5 / RFU, SLMO2 / Fold change vs veh, SLMO2 / RFU, ABCC4 / Fold change vs veh, ABCC4 / RFU, LOC101060439 /// RAP1B / Fold change vs veh, LOC101060439 /// RAP1B / RFU, RFX7 / Fold change vs veh, RFX7 / RFU, GTPBP10 / Fold change vs veh, GTPBP10 / RFU, CNEP1R1 / Fold change vs veh, CNEP1R1 / RFU, BIVM-ERCC5 /// ERCC5 / Fold change vs veh, BIVM-ERCC5 /// ERCC5 / RFU, ILF3 / Fold change vs veh, ILF3 / RFU 11762660_at / Fold change /veh 11762660_at / RFU VCAN (11757783_s_at) / Fold change /veh VCAN (11757783_s_at) / RFU DDX43 (11728927_at) / Fold change /veh DDX43 (11728927_at) / RFU KRT8 (11758188_x_at) / Fold change /veh KRT8 (11758188_x_at) / RFU NKD1 (11759106_at) / Fold change /veh NKD1 (11759106_at) / RFU SRD5A1 (11742802_a_at) / Fold change /veh SRD5A1 (11742802_a_at) / RFU TPSAB1 /// TPSB2 (11721975_s_at) / Fold change /veh TPSAB1 /// TPSB2 (11721975_s_at) / RFU GSTM3 (11746129_a_at) / Fold change /veh GSTM3 (11746129_a_at) / RFU IL23R (11737362_x_at) / Fold change /veh IL23R (11737362_x_at) / RFU TMEM51 (11727254_a_at) / Fold change /veh TMEM51 (11727254_a_at) / RFU PIWIL2 (11732686_x_at) / Fold change /veh PIWIL2 (11732686_x_at) / RFU ORM1 (11744905_x_at) / Fold change /veh ORM1 (11744905_x_at) / RFU CCDC152 (11743942_at) / Fold change /veh CCDC152 (11743942_at) / RFU ECM1 (11717891_a_at) / Fold change /veh ECM1 (11717891_a_at) / RFU IL23R (11748794_a_at) / Fold change /veh IL23R (11748794_a_at) / RFU TNFAIP8L3 (11732012_x_at) / Fold change /veh TNFAIP8L3 (11732012_x_at) / RFU MBOAT4 (11741988_at) / Fold change /veh MBOAT4 (11741988_at) / RFU 11764193_at / Fold change /veh 11764193_at / RFU TMEM53 (11763286_at) / Fold change /veh TMEM53 (11763286_at) / RFU MAGEB2 (11727129_at) / Fold change /veh MAGEB2 (11727129_at) / RFU TMEM200A (11744735_a_at) / Fold change /veh TMEM200A (11744735_a_at) / RFU CCDC152 (11751479_a_at) / Fold change /veh CCDC152 (11751479_a_at) / RFU FAM211A (11726209_a_at) / Fold change /veh FAM211A (11726209_a_at) / RFU RGS16 (11746705_a_at) / Fold change /veh RGS16 (11746705_a_at) / RFU VCAN (11755009_s_at) / Fold change /veh VCAN (11755009_s_at) / RFU RHOB (11743442_s_at) / Fold change /veh RHOB (11743442_s_at) / RFU RGS16 (11720943_a_at) / Fold change /veh RGS16 (11720943_a_at) / RFU RGS16 (11720944_at) / Fold change /veh RGS16 (11720944_at) / RFU, VPS4B / Fold change vs veh, VPS4B / RFU, CREB1 / Fold change vs veh, CREB1 / RFU, DNAJC13 / Fold change vs veh, DNAJC13 / RFU, GNAQ / Fold change vs veh, GNAQ / RFU, CDK5R1 / Fold change vs veh, CDK5R1 / RFU, ZRANB3 / Fold change vs veh, ZRANB3 / RFU, CUL4A / Fold change vs veh, CUL4A / RFU, CCNY / Fold change vs veh, CCNY / RFU, UFL1 / Fold change vs veh, UFL1 / RFU, COG3 / Fold change vs veh, COG3 / RFU, DIAPH2 / Fold change vs veh, DIAPH2 / RFU, SKA2 / Fold change vs veh, SKA2 / RFU, AFF3 / Fold change vs veh, AFF3 / RFU, LMF1 / Fold change vs veh, LMF1 / RFU, IPO11 / Fold change vs veh, IPO11 / RFU, DFFB / Fold change vs veh, DFFB / RFU, FOXP1 / Fold change vs veh, FOXP1 / RFU, CARD8 / Fold change vs veh, CARD8 / RFU, STRN3 / Fold change vs veh, STRN3 / RFU, ADK / Fold change vs veh, ADK / RFU, RASSF2 / Fold change vs veh, RASSF2 / RFU, WIPF1 / Fold change vs veh, WIPF1 / RFU, LARP1B / Fold change vs veh, LARP1B / RFU, RASA1 / Fold change vs veh, RASA1 / RFU, RB1 / Fold change vs veh, RB1 / RFU, PPFIA1 / Fold change vs veh, PPFIA1 / RFU, MAT2A / Fold change vs veh, MAT2A / RFU, CCT5 / Fold change vs veh, CCT5 / RFU, WDR92 / Fold change vs veh, WDR92 / RFU, CUX1 / Fold change vs veh, CUX1 / RFU, TTC7A / Fold change vs veh, TTC7A / RFU, TMEM135 / Fold change vs veh, TMEM135 / RFU, DEPTOR / Fold change vs veh, DEPTOR / RFU, CPM / Fold change vs veh, CPM / RFU, DNAJB6 / Fold change vs veh, DNAJB6 / RFU, CACNA2D3 / Fold change vs veh, CACNA2D3 / RFU, DTX4 / Fold change vs veh, DTX4 / RFU, TFCP2 / Fold change vs veh, TFCP2 / RFU, GMCL1 /// GMCL1P1 / Fold change vs veh, GMCL1 /// GMCL1P1 / RFU, AEBP2 / Fold change vs veh, AEBP2 / RFU, SNHG1 /// SNORD22 /// SNORD25 /// SNORD26 /// SNORD27 /// SNORD28 /// SNORD29 /// SNORD31 / Fold change vs veh, SNHG1 /// SNORD22 /// SNORD25 /// SNORD26 /// SNORD27 /// SNORD28 /// SNORD29 /// SNORD31 / Fold change (Aza/veh), C12orf56 (ProbeSet 11735607_a_at) / Fold change (ACY-1035/veh), C12orf56 (ProbeSet 11735607_a_at) / Fold change (Aza/veh), FGFR1OP (ProbeSet 11751329_s_at) / Fold change (ACY-1035/veh), FGFR1OP (ProbeSet 11751329_s_at) / Fold change (Aza/veh), VPS36 (ProbeSet 11739960_a_at) / Fold change (ACY-1035/veh), VPS36 (ProbeSet 11739960_a_at) / RFU SYPL1 (11715823_x_at) / Fold change /veh SYPL1 (11715823_x_at) / RFU IGFBP7 (11715501_s_at) / Fold change /veh IGFBP7 (11715501_s_at) / RFU REEP3 (11722064_at) / Fold change /veh REEP3 (11722064_at) / RFU IGLL1 (11728026_x_at) / Fold change /veh IGLL1 (11728026_x_at): dose or concentration left out as unconfirmed
Settings: ProbeSet 11739106_a_at; LIST B

For `Nc1ccc(-c2cccs2)cc1NC(=O)c1ccc2c(c1)cc(C1CC1)n2CCN1CCOCC1` [ACY-1035], the “RFU, TMEM33” value was 263.53 RFU.
